Results reported in patent publication US12377152B2, “Compounds for degrading alpha-synuclein aggregates and uses thereof” (APRINOIA THERAPEUTICS LIMITED, priority 2019, dated 2025).

molecular target: α-synuclein aggregates (Homo sapiens (Human), UniProt P37840); assay: ReNcell VM α-synuclein aggregation assay; type: cell-based; settings: 6-day treatment, immunocytochemical images
Protocol: The ReNcell VM α-synuclein aggregation assay was conducted at Charles River Laboratories (CRL). ReNcell VM is an immortalized human neural progenitor cell line derived from the ventral mesencephalon region of the brain. ReNcell VM cells were selected as in vitro cellular model for the α-synuclein aggregation assay, based on their growth features, differentiation potential into terminally differentiated neurons and amenability to adenoviral transduction. Aggregated human wild type α-synuclein was overexpressed through adenoviral delivery. Aggregated α-synuclein was detected with the aggregate-selective anti-α-synuclein antibody MJFR14 using immunocytochemistry; total α-synuclein levels were detected with Syn205 (α/β-synuclein-specific antibody).
The ReNcell VM α-synuclein aggregation assay was applied for compound screening to identify compounds capable of degrading α-synuclein aggregates. […] Immunoreactivity toward aggregated (MJFR14) and total α-synuclein (Syn205) was quantified using high content-based segmentation of immunoactive areas in immunocytochemical images (performed with the IN Cell 2200 (GE Healthcare)), followed by quantification of immunofluorescent intensity (performed by CRL's developed algorithm using IN Cell Developer Toolbox software).
Percentage effect (PE): Inhibition in comparison to BLANK (0.1% DMSO).
PE=100−(signal of compound/average signal BLANK)×100
Compound-induced cytotoxicity (% remaining cells)
% remaining cells=(nuclei count of compound/average nuclei count of BLANK)×100

Compound	inhibition of MJFR14 immunoreactivity
CN(C)c1ccc(-c2ccc(-c3nc4ccc(NCCCNC(=O)COc5ccc6c(c5)CN(C5CCC(=O)NC5=O)C6=O)cc4s3)c(C(F)(F)F)c2)cn1 (stereo not shown) [Compound 166362]	clear inhibition

same assay, conditions: 24 hour treatment, differentiated ReNcell VM cells

Compound	inhibition of MJFR14 immunoreactivity
CN(C)c1ccc(-c2ccc(-c3nc4ccc(NCCCNC(=O)COc5ccc6c(c5)CN(C5CCC(=O)NC5=O)C6=O)cc4s3)c(C(F)(F)F)c2)cn1 (stereo not shown) [Compound 166362]	concentration-dependent inhibition
CN(C)c1ccc(-c2ccc(-c3nc4ccc(NC(=O)CCOCCOCCOc5ccc6c(c5)CN(C5CCC(=O)NC5=O)C6=O)cc4s3)cc2)cn1 (stereo not shown) [Compound 170357]	concentration-dependent inhibition

same assay, conditions: ReNcell VM cells; read-out: Activity (DC50, concentration at which 50% of α-synuclein aggregates has been degraded)

Compound	DC50 [µM]
CN(C)c1ccc(-c2ccc(-c3nc4ccc(NCCOCCN5C(=O)CCC(N6Cc7c(N)cccc7C6=O)C5=O)cc4s3)cc2)cn1 (stereo not shown) [Compound 162641, 3-(7-azanyl-3-oxidanylidene-1H-isoindol-2-yl)-1-[2-[2-[[2-[4-[6-(dimethylamino)pyridin-3-yl]phenyl]-1,3-benzothiazol-6-yl]amino]ethoxy]ethyl]piperidine-2,6-dione]	> 10
CN(C)c1ccc(-c2ccc(-c3nc4ccc(OCCOCCOc5ccc6c(c5)CN(C5CCC(=O)NC5=O)C6=O)cc4o3)cc2)cn1 (stereo not shown) [Compound 163365]	0.01 to 0.9
Cc1ncsc1-c1ccc(CNC(=O)[C@@H]2C[C@@H](O)CN2C(=O)[C@@H](NC(=O)COCCOCCOc2ccc3nc(-c4ccc(-c5ccc(N(C)C)nc5)cc4C(F)(F)F)sc3c2)C(C)(C)C)cc1 [Compound 165554]	> 10
Cc1ncsc1-c1ccc(CNC(=O)[C@@H]2C[C@@H](O)CN2C(=O)C(NC(=O)COCCOCCNc2cc(-c3ccc(-c4nc5ccc(F)cc5s4)cc3)ccn2)C(C)(C)C)cc1 (stereo partly shown) [Compound 165810]	> 10
O=C1CCC(N2Cc3cc(OCCOCCNc4cc(-c5ccc(-c6cn7cc(F)ccc7n6)cc5)ccn4)ccc3C2=O)C(=O)N1 (stereo not shown) [Compound 165824]	> 10
CN(C)c1ccc2nc(-c3ccc(-c4ccnc(NCCOCCOc5ccc6c(c5)CN(C5CCC(=O)NC5=O)C6=O)c4)cc3)sc2c1 (stereo not shown) [Compound 165950]	> 10
O=C1CCC(N2C(=O)c3ccc(OCCOCCNc4cc(-c5ccc(-c6nc7ccc(F)cc7s6)cc5)ccn4)cc3C2=O)C(=O)N1 (stereo not shown) [Compound 165952]	> 10
O=C1CCC(N2Cc3cc(OCCOCCNc4ccc(-c5ccc(-c6cc7ccncc7[nH]6)cc5)cn4)ccc3C2=O)C(=O)N1 (stereo not shown) [Compound 165954]	> 10
CN(C)c1ccc(-c2ccc(-c3nc4ccc(NCCCNC(=O)COc5ccc6c(c5)CN(C5CCC(=O)NC5=O)C6=O)cc4s3)c(C(F)(F)F)c2)cn1 (stereo not shown) [Compound 166362]	0.9 to 10
CN(C)c1ccc(-c2ccc(-c3cn4cc(OCCOCCN5C(=O)CCC(N6C(=O)c7ccc(O)cc7C6=O)C5=O)ccc4n3)cc2)c(F)n1 (stereo not shown) [Compound 170350]	0.9 to 10
CN(C)c1ccc2nc(-c3ccc(-c4ccc(NCCOCCN5C(=O)CCC(N6C(=O)c7ccc(O)cc7C6=O)C5=O)nc4)cc3)sc2c1 (stereo not shown) [Compound 170351]	0.9 to 10
CN(C)c1ccc2nc(-c3ccc(-c4ccc(NCCOCCOc5ccc6c(c5)CN(C5CCC(=O)NC5=O)C6=O)nc4)cc3)sc2c1 (stereo not shown) [Compound 170352]	> 10
CN(C)c1ccc2nc(-c3ccc(-c4ccc(NCCOCCOc5ccc6c(c5)C(=O)N(C5CCC(=O)NC5=O)C6=O)nc4)cc3)sc2c1 (stereo not shown) [Compound 170353]	> 10
O=C1CCC(N2C(=O)c3ccc(OCCOCCNc4ccc(-c5ccc(-c6cc7ccncc7[nH]6)cc5)cn4)cc3C2=O)C(=O)N1 (stereo not shown) [Compound 170354]	0.01 to 0.9
CN(C)c1ccc(-c2ccc(-c3nc4ccc(NCCOCCOCCOCCOCCOCCNc5cccc6c5C(=O)N(C5CCC(=O)NC5=O)C6=O)cc4s3)cc2)cn1 (stereo not shown) [Compound 170355]	> 10
CN(C)c1ccc(-c2ccc(-c3nc4ccc(NCCOCCNc5cccc6c5C(=O)N(C5CCC(=O)NC5=O)C6=O)cc4s3)cc2)cn1 (stereo not shown) [Compound 170356]	> 10
CN(C)c1ccc(-c2ccc(-c3nc4ccc(NC(=O)CCOCCOCCOc5ccc6c(c5)CN(C5CCC(=O)NC5=O)C6=O)cc4s3)cc2)cn1 (stereo not shown) [Compound 170357]	0.01 to 0.9
CN(C)c1ccc(-c2ccc(-c3nc4ccc(NC(=O)CCOCCOc5ccc6c(c5)CN(C5CCC(=O)NC5=O)C6=O)cc4s3)cc2)cn1 (stereo not shown) [Compound 170358]	> 10
CN(C)c1ccc(-c2ccc(-c3cn4cc(OCCOCCOc5ccc6c(c5)CN(C5CCC(=O)NC5=O)C6=O)ccc4n3)cc2)c(F)n1 (stereo not shown) [Compound 170450]	> 10
